Measured values taken from patent US7135467B2, “HIV integrase inhibitors” (priority 2003, dated 2006).

Experiments:
[1] = biological target: T1, HIV-integrase (recombinant integrase) (Human immunodeficiency virus type 1 group M subtype B, UniProt P12497); assay: HIV-Integrase Inhibition Activity (SPA bead strand-transfer assay); assay type: biochemical; conditions: recombinant integrase on biotin labeled substrate DNA/SPA beads, P33 labeled target DNA; read-out: Activity (IC50 against HIV-integrase)
T1 construct: Recombinant integrase (0.26 ng) was incubated with the beads
Method in brief: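 Recombinant integrase (0.26 ng) was bound for 90 min at 37° C to biotin-labelled substrate DNA (5 pmole) on streptavidin SPA beads. After washing, inhibitors and 0.1 fmol P33-labelled target DNA were added, and the reaction was stopped with 10 mM EDTA. Integration was measured as CPM.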

Cc1ccc(CNC(=O)c2nc(N3CCOCC3)n(C)c(=O)c2O)cc1F [Compound 55, N-[(3-fluoro-4-methylphenyl)methyl]-1,6-dihydro-5-hydroxy-1-methyl-2-(4-morpholinyl)-6-oxo-4-pyrimidinecarboxamide]
melting point: 166 to 167 °C
IC50 [1]: 0.003 to 0.1 µM

Cc1ncn(-c2nc(C(=O)NCc3ccc(F)c(C)c3)c(O)c(=O)n2C)n1 [Compound 60, N-[(4-fluoro-3-methylphenyl)methyl]-1,6-dihydro-5-hydroxy-1-methyl-2-(3-methyl-1H-1,2,4-triazol-1-yl)-6-oxo-4-pyrimidinecarboxamide]
melting point: 204 to 205 °C
IC50 [1]: 0.003 to 0.1 µM

Cn1c(N2CCOCC2)nc(C(=O)NCc2ccc(F)c(Cl)c2)c(O)c1=O [Compound 56, N-[(3-chloro-4-fluorophenyl)methyl]-1,6-dihydro-5-hydroxy-1-methyl-2-(4-morpholinyl)-6-oxo-4-pyrimidinecarboxamide]
melting point: 170 to 171 °C
IC50 [1]: 0.003 to 0.1 µM

Cc1cc(CNC(=O)c2nc(N3CCOCC3)n(C)c(=O)c2O)ccc1F [Compound 54, N-[(4-fluoro-3-methylphenyl)methyl]-1,6-dihydro-5-hydroxy-1-methyl-2-(4-morpholinyl)-6-oxo-4-pyrimidinecarboxamide]
melting point: 182 to 185 °C
IC50 [1]: 0.003 to 0.1 µM

Cc1ncnn1-c1nc(C(=O)NCc2ccc(F)cc2)c(O)c(=O)n1C [Compound 61, N-[(4-fluorophenyl)methyl]-1,6-dihydro-5-hydroxy-1-methyl-2-(5-methyl-1H-1,2,4-triazol-1-yl)-6-oxo-4-pyrimidinecarboxamide]
melting point: 230 °C
IC50 [1]: 0.1 to 1 µM

Cn1c(N2CCCCS2(=O)=O)nc(C(=O)Nc2ccc(F)cc2)c(O)c1=O [Compound 50, 2-(1,1-Dioxo-1λ^6-[1,2]thiazinan-2-yl)-5-hydroxy-1-methyl-6-oxo-1,6-dihydro-pyrimidine-4-carboxylic acid (4-fluoro-phenyl)-amide]
melting point: 285 to 291 °C (dec.)
IC50 [1]: ≥ 1 µM

COc1cc(CNC(=O)c2nc(N3CCCCS3(=O)=O)n(C)c(=O)c2O)cc(OC)c1OC [Compound 41, 1,6-dihydro-5-hydroxy-1-methyl-6-oxo-2-(tetrahydro-1,1-dioxido-2H-1,2-thiazin-2-yl)-N-[(3,4,5-trimethoxyphenyl)methyl]-4-pyrimidinecarboxamide]
IC50 [1]: ≥ 1 µM

COc1cccc(CCNC(=O)c2nc(N3CCCCS3(=O)=O)n(C)c(=O)c2O)c1 [Compound 39, 1,6-dihydro-5-hydroxy-N-[2-(3-methoxyphenyl)ethyl]-1-methyl-6-oxo-2-(tetrahydro-1,1-dioxido-2H-1,2-thiazin-2-yl)-4-pyrimidinecarboxamide]
IC50 [1]: ≥ 1 µM

Cn1c(N2CCCCS2(=O)=O)nc(C(=O)NCc2ccc(Cl)cc2)c(O)c1=O [Compound 4, N-[(4-chlorophenyl)methyl]-1,6-dihydro-5-hydroxy-1-methyl-6-oxo-2-(tetrahydro-1,1-dioxido-2H-1,2-thiazin-2-yl)-4-pyrimidinecarboxamide]
IC50 [1]: 0.003 to 0.1 µM

Cn1c(N2CCCCS2(=O)=O)nc(C(=O)NCCCc2ccc(Cl)c(Cl)c2)c(O)c1=O [Compound 7, N-[3-(3,4-dichlorophenyl)propyl]-1,6-dihydro-5-hydroxy-1-methyl-6-oxo-2-(tetrahydro-1,1-dioxido-2H-1,2-thiazin-2-yl)-4-pyrimidinecarboxamide]
IC50 [1]: ≥ 1 µM

Cn1c(N2CCCCS2(=O)=O)nc(C(=O)NCc2ccc(F)c(Cl)c2)c(O)c1=O [Compound 18, N-[(3-chloro-4-fluorophenyl)methyl]-1,6-dihydro-5-hydroxy-1-methyl-6-oxo-2-(tetrahydro-1,1-dioxido-2H-1,2-thiazin-2-yl)-4-pyrimidinecarboxamide]
IC50 [1]: 0.003 to 0.1 µM

Cn1c(N2CCCCS2(=O)=O)nc(C(=O)NCc2cccs2)c(O)c1=O [Compound 34, 1,6-dihydro-5-hydroxy-1-methyl-6-oxo-2-(tetrahydro-1,1-dioxido-2H-1,2-thiazin-2-yl)-N-(2-thienylmethyl)-4-pyrimidinecarboxamide]
IC50 [1]: 0.1 to 1 µM

Cn1c(N2CCCCS2(=O)=O)nc(C(=O)NCc2ccccc2Cl)c(O)c1=O [Compound 36, N-[(2-chlorophenyl)methyl]-1,6-dihydro-5-hydroxy-1-methyl-6-oxo-2-(tetrahydro-1,1-dioxido-2H-1,2-thiazin-2-yl)-4-pyrimidinecarboxamide]
IC50 [1]: 0.1 to 1 µM

CNc1nc(C(=O)NCc2ccc(F)cc2)c(O)c(=O)n1C [Compound 64, 5-Hydroxy-1-methyl-2-methylamino-6-oxo-1,6-dihydro-pyrimidine-4-carboxylic acid 4-fluoro-benzylamine]
IC50 [1]: 0.003 to 0.1 µM

Cn1c(N2CCC(O)CC2)nc(C(=O)NCc2ccc(F)cc2)c(O)c1=O [Compound 65, N-[(4-fluorophenyl)methyl]-1,6-dihydro-5-hydroxy-2-(4-hydroxy-1-piperidinyl)-1-methyl-6-oxo-4-pyrimidinecarboxamide]
IC50 [1]: 0.003 to 0.1 µM

Cn1c(N2CCOCC2)nc(C(=O)NCc2ccc(F)cc2)c(O)c1=O [Compound 52, N-[(4-fluorophenyl)methyl]-1,6-dihydro-5-hydroxy-1-methyl-2-(4-morpholinyl)-6-oxo-4-pyrimidinecarboxamide]
melting point: 197 to 199 °C
IC50 [1]: 0.003 to 0.1 µM

Cc1ncn(-c2nc(C(=O)NCc3ccc(F)cc3)c(O)c(=O)n2C)n1 [Compound 58, N-[(4-fluorophenyl)methyl]-1,6-dihydro-5-hydroxy-1-methyl-2-(3-methyl-1H-1,2,4-triazol-1-yl)-6-oxo-4-pyrimidinecarboxamide]
IC50 [1]: 0.1 to 1 µM

Cc1ncn(-c2nc(C(=O)NCc3ccc(Cl)c(Cl)c3)c(O)c(=O)n2C)n1 [Compound 59, N-[(3,4-dichlorophenyl)methyl]-1,6-dihydro-5-hydroxy-1-methyl-2-(3-methyl-1H-1,2,4-triazol-1-yl)-6-oxo-4-pyrimidinecarboxamide]
melting point: 188 to 189 °C (dec.)
IC50 [1]: 0.003 to 0.1 µM

CC(=O)N1CCN(c2nc(C(=O)NCc3ccc(F)cc3)c(O)c(=O)n2C)CC1 [Compound 71, 2-(4-acetyl-1-piperazinyl)-N-[(4-fluorophenyl)methyl]-1,6-dihydro-5-hydroxy-1-methyl-6-oxo-4-pyrimidinecarboxamide]
IC50 [1]: 0.003 to 0.1 µM

CNC(=O)N1CCN(c2nc(C(=O)NCc3ccc(F)c(C)c3)c(O)c(=O)n2C)CC1 [Compound 88, N-[(4-fluoro-3-methylphenyl)methyl]-1,6-dihydro-5-hydroxy-1-methyl-2-[4-[(methylamino)carbonyl]-1-piperazinyl]-6-oxo-4-pyrimidinecarboxamide]
IC50 [1]: 0.003 to 0.1 µM

Cn1c(N2CCN(c3ccccc3)CC2)nc(C(=O)NCc2ccc(F)cc2)c(O)c1=O [Compound 79, N-[(4-fluorophenyl)methyl]-1,6-dihydro-5-hydroxy-1-methyl-6-oxo-2-(4-phenyl-1-piperazinyl)-4-pyrimidinecarboxamide]
IC50 [1]: 0.003 to 0.1 µM

Cn1c(N2CCCCS2(=O)=O)nc(C(=O)NCc2cccc(F)c2)c(O)c1=O [Compound 3, N-[(3-fluorophenyl)methyl]-1,6-dihydro-5-hydroxy-1-methyl-6-oxo-2-(tetrahydro-1,1-dioxido-2H-1,2-thiazin-2-yl)-4-pyrimidinecarboxamide]
IC50 [1]: 0.1 to 1 µM

Cn1c(N2CCCCS2(=O)=O)nc(C(=O)NCc2cc(F)ccc2F)c(O)c1=O [Compound 45, N-[(2,5-difluorophenyl)methyl]-1,6-dihydro-5-hydroxy-1-methyl-6-oxo-2-(tetrahydro-1,1-dioxido-2H-1,2-thiazin-2-yl)-4-pyrimidinecarboxamide]
IC50 [1]: 0.1 to 1 µM

Cc1ccc(CNC(=O)c2nc(N3CCOCC3)n(C)c(=O)c2O)cc1C [Compound 57, N-[(3,4-dimethylphenyl)methyl]-1,6-dihydro-5-hydroxy-1-methyl-2-(4-morpholinyl)-6-oxo-4-pyrimidinecarboxamide]
melting point: 164 to 166 °C
IC50 [1]: 0.003 to 0.1 µM

Cn1c(N2CCCCS2(=O)=O)nc(C(=O)NCc2ccccc2)c(O)c1=O [Compound 35, 1,6-dihydro-5-hydroxy-1-methyl-6-oxo-N-(phenylmethyl)-2-(tetrahydro-1,1-dioxido-2H-1,2-thiazin-2-yl)-4-pyrimidinecarboxamide]
IC50 [1]: 0.1 to 1 µM

Cn1c(N2CCOCC2)nc(C(=O)NCc2ccc(Cl)c(Cl)c2)c(O)c1=O [Compound 53, N-[(3,4-dichlorophenyl)methyl]-1,6-dihydro-5-hydroxy-1-methyl-2-(4-morpholinyl)-6-oxo-4-pyrimidinecarboxamide]
melting point: 100 to 102 °C
IC50 [1]: 0.003 to 0.1 µM
